PMC8621172, “Manipulating Estrogenic/Anti-Estrogenic Activity of Triphenylethylenes towards Development of Novel Anti-Neoplastic SERMs” (International Journal of Molecular Sciences, 2021)

Tests used:
ER = settings: fold over TAM; cited from earlier work
colon cancer cell lines = experiment: NCI five-dose assay, colon cancer subpanel; format: cell-based; settings: Homo sapiens
Description: (§1) All compounds were subjected to the NCI in vitro disease-oriented human cells screening panel assay. The human tumor cell lines of the cancer-screening panel are grown in RPMI 1640 medium containing 5% fetal bovine serum and 2 mM L-glutamine. For a typical screening experiment, cells are inoculated into 96-well microtiter plates in 100 μL at plating densities ranging from 5000 to 40,000 cells/well depending on the doubling time of individual cell lines. After cell inoculation, the microtiter plates are incubated at 37 °C, 5% CO2, 95% air, and 100% relative humidity for 24 h prior to the addition of experimental drugs. After 24 h, two plates of each cell line are fixed in situ with TCA to represent a measurement of the cell population for each cell line at the time of drug addition. Experimental drugs are solubilized in dimethyl sulfoxide at 400-fold the desired final maximum test concentration and stored frozen prior to use. At the time of drug addition, an aliquot of frozen concentrate is thawed and diluted to twice the desired final maximum test concentration with complete medium containing 50 μg/mL gentamicin. […] Bound stain is subsequently solubilized with a 10 mM trizma base, and the absorbance is read on an automated plate reader at a wavelength of 515 nm. […] Three response parameters (GI50, TGI, and LC50) were calculated for each cell line.

MCF-7 cells = experiment: NCI growth inhibition on MCF-7 (single dose and five-dose, SRB); format: cell-based, human; settings: Homo sapiens, MCF7
Description: Compounds were submitted to the Developmental Therapeutics Program (DTP) of the National Cancer Institute (NCI). The program uses a panel of 60 human tumor cell lines representing nine tissue types, including leukemia, non-small cell lung cancer (NSCLC), melanoma, colon cancer, ovarian cancer, CNS cancer, renal cancer, prostate cancer, and breast cancer, to screen for potential new anti-cancer agents. […] Primary screening of synthesized compounds was performed by testing a single high dose of 10 µM in the full NCI-60 panel. The percent growth of treated cells relative to the no-drug control and relative to the time zero number of cells was measured, and a mean graph was provided. The percentage inhibition was then calculated by subtracting the values obtained from 100.
All compounds were subjected to the NCI in vitro disease-oriented human cells screening panel assay. The human tumor cell lines of the cancer-screening panel are grown in RPMI 1640 medium containing 5% fetal bovine serum and 2 mM L-glutamine. For a typical screening experiment, cells are inoculated into 96-well microtiter plates in 100 μL at plating densities ranging from 5000 to 40,000 cells/well depending on the doubling time of individual cell lines. After cell inoculation, the microtiter plates are incubated at 37 °C, 5% CO2, 95% air, and 100% relative humidity for 24 h prior to the addition of experimental drugs. After 24 h, two plates of each cell line are fixed in situ with TCA to represent a measurement of the cell population for each cell line at the time of drug addition. Experimental drugs are solubilized in dimethyl sulfoxide at 400-fold the desired final maximum test concentration and stored frozen prior to use. At the time of drug addition, an aliquot of frozen concentrate is thawed and diluted to twice the desired final maximum test concentration with complete medium containing 50 μg/mL gentamicin. Additional four, 10-fold, or ½ log serial dilutions are made to provide a total of five drug concentrations plus control. Aliquots of 100 μL of these different drug dilutions are added to the appropriate microtiter wells already containing 100 μL of medium, resulting in the required final drug concentrations. Following drug addition, the plates are incubated for an additional 48 h at 37 °C, 5% CO2, 95% air, and 100% relative humidity. For adherent cells, the assay is terminated by the addition of cold TCA. Cells are fixed in situ by the gentle addition of 50 μL of cold 50% (w/v) TCA (final concentration, 10% TCA) and incubated for 60 min at 4 °C. The supernatant is discarded, and the plates are washed five times with tap water and air-dried. Sulforhodamine B (SRB) solution (100 μL) at 0.4% (w/v) in 1% acetic acid is added to each well, and plates are incubated for 10 min at room temperature. After staining, unbound dye is removed by washing five times with 1% acetic acid, and the plates are air-dried. Bound stain is subsequently solubilized with a 10 mM trizma base, and the absorbance is read on an automated plate reader at a wavelength of 515 nm. For suspension cells, the methodology is the same except that the assay is terminated by fixing settled cells at the bottom of the wells by gently adding 50 μL of 80% TCA (final concentration, 16% TCA). Compounds are screened at a dose of 10 µM, hits showing mean growth inhibition over 60 cell lines >50% are escalated for 5-dose screening assay. To construct a dose-response curve, about 60 cell lines of nine tumor subpanels were incubated with five concentrations (0.01–100 μM) for each compound. Three response parameters (GI50, TGI, and LC50) were calculated for each cell line.

renal cell lines = experiment: NCI five-dose assay, renal subpanel; format: cell-based; settings: Homo sapiens
Description: as §1

NSCLC cell lines = experiment: NCI five-dose assay, NSCLC subpanel; format: cell-based; settings: Homo sapiens
Description: as §1

prostate cell lines = experiment: NCI five-dose assay, prostate subpanel; format: cell-based; settings: Homo sapiens
Description: as §1

**Q.** For CC/C(=C(\c1ccc(O)cc1)c1ccc(OCCN(C)C)cc1)c1ccccc1 [Compound 4-OH-TAM, 4-hydroxy-TAM], which “affinity to the ER compared to the parent drug TAM (times)” value (ER) is on record?
**A.** 100

**Q.** Which GI50 (colon cancer cell lines) does the source give for CC/C(=C(\c1ccccc1)c1ccc(OCCN(C)C)cc1)c1ccccc1 [TAM, Tamoxifen, reference compound] here?
**A.** 6.31 µM

**Q.** What about the inhibition at 10 µM (MCF-7 cells; 10 µM) of the same compound?
**A.** > 100%

**Q.** What about the GI50 (MCF-7 cells; MCF-7, five-dose assay, 48 h) of the same compound?
**A.** 1.58 µM

**Q.** What about the GI50 (renal cell lines) of the same compound?
**A.** 5 µM

**Q.** What about the GI50 (NSCLC cell lines) of the same compound?
**A.** 6.31 µM

**Q.** And the GI50 (prostate cell lines)?
**A.** 5.35 µM

**Q.** For CC/C(=C(\c1ccc(O)cc1)c1ccc(OCCNC)cc1)c1ccccc1 [endoxifen], which “affinity to the ER compared to the parent drug TAM (times)” value (ER) is on record?
**A.** 100
